Key:
hERG = hERG (Homo sapiens (Human), UniProt Q12809); test: hERG radioligand binding assay; conditions: for inhibition at 1 h, 10000 nM: human, hERG membrane stocks (membrane preparation), probe 3H radio ligand (not named), max dose 10,000 nM, read-out: % Inh at Max dose
Method: Procedure: Compounds were prepared and diluted with DMSO to make 0.2 mM and 0.02 mM solution. Reference compound was diluted with DMSO to make 8-point 4-fold serial dilution, starting at 0.2 mM. One μl of compounds/high control/low control was transferred to the assay plate according to the plate map. Next, and by following the plate map, 100 μl of membrane stocks was dispensed into the plate followed by adding 100 μl of radio ligand. Plates were then sealed and were incubated at RT for 1 hours. In the meantime, the Unifilter-96 GF/C filter plates were soaked with 50 μL of 0.5% BSA per well for at least 0.5 hour at room temperature. When binding assays were completed, the reaction mixture was filtered through GF/C plates using Perkin Elmer Filtermate Harvester, and then each plate was washed for 4 times with cold wash buffer. Next, the filter plates were dried for 1 hr at 50 degrees and the bottom of the filter plate wells were sealed using Perkin Elmer Unifilter-96 backing seal tape. Next, 50 μl of Perkin Elmer Microscint 20 cocktail was added. The top of the filter plate was sealed with Perkin Elmer TopSeal-A sealing film. Using Perkin Elmer MicroBeta2 Reader count 3H trapped on filter. Finally, the data was analyzed with GraphPad Prism 5. The “Inhibition [% Control]” was calculated using the equation: % Inh=(1-Background subtracted Assay value/Background subtracted HC value)*100.

MV-411 cells = test: Anti-proliferative activity against MV-411 leukemia cells (CellTiterGlo viability, 72 h); assay type: cell-based; conditions: Homo sapiens, MV4-11, 72 h, MV-411 human acute monocytic leukemia cells, a second value in parentheses is a further determination
Method: Procedure: MV-411 cells were seeded into 384 well plates at 2000 cells/well density in 50 μL total volume, according to plate map and were allowed to naturally sediment by waiting about 30 min on a Clean Bench. Next, plated cells were centrifuged for 1 min at 1000 rpm and the excess cells were transferred into the flasks for further culture. Cells in the assay plates were incubated (at least 4 hrs.) at 37° C., 5% CO2 followed by adding the compounds as the plate map indicated. The tests were performed in duplicates with treatment of compounds at 10 pts 3-fold titration in 384 well plates. Taxol was used as positive control while DMSO as negative control. To rule out edge effect, the wells on the edge were not seeded and therefore one 384 well plate holds 13 compounds. Cells viability was measured 72h after incubation with compounds using CellTiterGlo (promega) viability assay according to manufacturer's instruction to check the ATP production in each well.
Experiments on anti-proliferative activity against leukemia cells were conducted with some of the compounds of the invention.

[1] = Solubility remark in Table 4; assay type: physicochemical; conditions: remark beside the GI50 value
[2] = target: MLL1-WDR5 protein-protein interaction (Homo sapiens (Human), UniProt P61964); test: WDR5 TR-FRET assay (MLL1-WDR5 PPI inhibition); assay type: binding; conditions: 5 nM WDR5 protein, 10 nM peptide, read-out: IC50 (nM), MLL1-WDR5 PPI inhibitory activity
Method: WDR5 TR-FRET Assay Procedure: Stock compounds were transferred to the assay plate by Echo Liquid Handler. […] Stock compounds were incubated with WDR5 protein for 30 min at room temperature. Plates were covered, protected from light and incubated for 60 min at room temperature, after adding the peptide and Tb-Ab. EnVision Multimode Plate Reader (PerkinElmer) was used for the TR-FRET assay with excitation wavelength at 340 nm and emission wavelength at 495 and 520 nm. The ratio of the 520/495 wavelengths were used to assess the degree of the FRET signal. IC50 was calculated by fitting the inhibition data using XLfit software to sigmoidal dose-response model.

hERG, sequence (Q12809 whole entry): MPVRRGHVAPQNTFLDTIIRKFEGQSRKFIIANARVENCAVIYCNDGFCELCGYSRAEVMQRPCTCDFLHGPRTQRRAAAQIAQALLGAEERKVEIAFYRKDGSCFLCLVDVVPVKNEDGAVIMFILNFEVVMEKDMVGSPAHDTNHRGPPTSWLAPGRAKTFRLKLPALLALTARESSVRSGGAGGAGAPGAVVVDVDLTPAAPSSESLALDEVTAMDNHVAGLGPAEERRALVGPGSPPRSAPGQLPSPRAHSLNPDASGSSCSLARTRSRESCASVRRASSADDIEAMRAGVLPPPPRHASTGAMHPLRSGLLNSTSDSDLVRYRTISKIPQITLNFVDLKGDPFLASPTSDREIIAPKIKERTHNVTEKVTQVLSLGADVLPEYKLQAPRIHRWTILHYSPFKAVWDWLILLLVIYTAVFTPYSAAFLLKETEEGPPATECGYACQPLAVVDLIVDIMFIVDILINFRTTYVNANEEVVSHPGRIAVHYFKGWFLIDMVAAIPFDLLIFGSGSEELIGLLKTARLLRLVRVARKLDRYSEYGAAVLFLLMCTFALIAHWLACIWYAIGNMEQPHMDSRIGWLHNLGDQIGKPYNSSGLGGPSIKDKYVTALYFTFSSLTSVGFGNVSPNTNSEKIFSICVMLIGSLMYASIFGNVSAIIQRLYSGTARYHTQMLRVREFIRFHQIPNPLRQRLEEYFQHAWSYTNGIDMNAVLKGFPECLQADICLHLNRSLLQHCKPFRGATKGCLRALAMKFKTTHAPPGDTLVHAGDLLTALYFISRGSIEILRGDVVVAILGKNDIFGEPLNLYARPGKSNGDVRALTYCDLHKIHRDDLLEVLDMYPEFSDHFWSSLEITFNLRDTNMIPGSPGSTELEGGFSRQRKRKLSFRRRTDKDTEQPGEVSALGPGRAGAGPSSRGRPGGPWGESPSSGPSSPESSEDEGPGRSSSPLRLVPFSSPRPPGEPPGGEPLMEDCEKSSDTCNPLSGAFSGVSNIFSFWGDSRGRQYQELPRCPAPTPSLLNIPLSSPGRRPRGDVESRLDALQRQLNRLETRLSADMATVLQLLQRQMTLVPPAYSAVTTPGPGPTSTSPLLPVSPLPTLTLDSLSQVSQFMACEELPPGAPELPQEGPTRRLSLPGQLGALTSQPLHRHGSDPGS

Q: Which results are given for `CN1CCN(c2ccc(-n3cc(C(=O)NCCCN4CCOCC4)nn3)cc2NC(=O)c2cnc(Cl)cc2C(F)(F)F)CC1` [Compound 3]?
A: IC50 (hERG): > 10000 nM; inhibition at 1 h, 10000 nM (hERG): 3.31%; GI50 (MV-411 cells): 0.298 µM

Q: Which results are given for `CN1CCN(c2cc(F)c(-n3cc(C(=O)NCCCN4CCOCC4)nn3)cc2NC(=O)c2cnc(Cl)cc2C(F)(F)F)CC1` [Compound 7]?
A: IC50 (hERG): > 10000 nM; inhibition at 1 h, 10000 nM (hERG): 11.8%; GI50 (MV-411 cells): 0.4 µM

Q: For `C[C@H]1CN(c2ccc(-n3cc(C(=O)NCCCN4CCOCC4)nn3)cc2NC(=O)c2cnc(Cl)cc2C(F)(F)F)CCN1C` [Compound 9], which IC50 (hERG) is on record?
A: The IC50 was > 10000 nM.

Q: What about the inhibition at 1 h, 10000 nM (hERG) of the same compound?
A: The inhibition at 1 h, 10000 nM was 6.39%.

Q: What about the GI50 (MV-411 cells) of the same compound?
A: The GI50 was 0.241 µM.

Q: What does the source list for `Cc1c(Cl)ncc(C(=O)Nc2cc(-n3cc(C(=O)NCCCN4CCOCC4)nn3)c(F)cc2N2CCN(C)[C@H](C)C2)c1Cl` [Compound 59]?
A: solubility (remark) [1]: (poor solubility); GI50 (MV-411 cells): > 204 µM

Q: For `CN(CCOc1ccc(NS(C)(=O)=O)cc1)CCc1ccc(NS(C)(=O)=O)cc1` [Dofetilide], which inhibition at 1 h, 10000 nM (hERG) is on record?
A: Its inhibition at 1 h, 10000 nM is 99.9%.

Q: Which IC50 [2] does the source give for `CN1CCN(c2ccc(-n3cc(C(=O)NCCCN4CCOCC4)nn3)cc2NC(=O)c2ccc(S(C)(=O)=O)nc2C(F)(F)F)CC1` [Example 44, N-[2-(4-methylpiperazin-1-yl)-5-[4-(3-morpholinopropylcarbamoyl)triazol-1-yl]phenyl]-6-methylsulfonyl-2-(trifluoromethyl)pyridine-3-carboxamide] here?
A: Its IC50 is > 10000 nM.

Q: For `CN1CCN(c2ccc(-n3cc(C(=O)NCCCN4CCOCC4)nn3)cc2NC(=O)c2ccc(Cl)cc2C(F)(F)F)CC1` [Example 46, 1-(3-(4-chloro-2-(trifluoromethyl)benzamido)-4-(4-methylpiperazin-1-yl)phenyl)-N-(3-morpholinopropyl)-1H-1,2,3-triazole-4-carboxamide], which IC50 [2] is on record?
A: Its IC50 is 458 nM.

Q: Which IC50 [2] does the source give for `CN1CCN(c2ccc(-n3cc(C(=O)NCCCN4CCOCC4)nn3)cc2NC(=O)c2cc(C(F)(F)F)cc(C(F)(F)F)c2)CC1` [Example 47, 1-(3-(3,5-bis(trifluoromethyl)benzamido)-4-(4-methylpiperazin-1-yl)phenyl)-N-(3-morpholinopropyl)-1H-1,2,3-triazole-4-carboxamide] here?
A: Its IC50 is 3520 nM.

Q: Which IC50 [2] does the source give for `Cc1cc(Cl)c(C(=O)Nc2cc(-n3cc(C(=O)NCCCN4CCOCC4)nn3)ccc2N2CCN(C)CC2)cc1[N+](=O)[O-]` [Example 48, 1-[3-[(2-chloro-4-methyl-5-nitro-benzoyl)amino]-4-(4-methylpiperazin-1-yl)phenyl]-N-(3-morpholinopropyl)triazole-4-carboxamide] here?
A: Its IC50 is > 10000 nM.

Q: Which IC50 [2] does the source give for `Cc1cc(Cl)c(C(=O)Nc2cc(-n3cc(C(=O)NCCCN4CCOCC4)nn3)ccc2N2CCN(C)CC2)cc1N` [Example 49, 1-(3-(5-amino-2-chloro-4-methylbenzamido)-4-(4-methylpiperazin-1-yl)phenyl)-N-(3-morpholinopropyl)-1H-1,2,3-triazole-4-carboxamide] here?
A: The IC50 was 4370 nM.

Q: With `C[C@@H]1CN(c2cc(F)c(-n3cc(C(=O)N4CCN(C)CC4)nn3)cc2NC(=O)c2cnc(Cl)cc2C(F)(F)F)C[C@H](C)N1C` [Example 51, 6-chloro-N-(4-fluoro-5-(4-(4-methylpiperazine-1-carbonyl)-1H-1,2,3-triazol-1-yl)-2-((3S,5R)-3,4,5-trimethylpiperazin-1-yl)phenyl)-4-(trifluoromethyl)nicotinamide] as the compound, how does the IC50 [2] read?
A: The IC50 was 326 nM.

Q: For `C[C@@H]1CN(c2cc(F)c(-n3cc(C(=O)NC4CCN(C)CC4)nn3)cc2NC(=O)c2cnc(Cl)cc2C(F)(F)F)C[C@H](C)N1C` [Example 52, 6-chloro-N-(4-fluoro-5-(4-((1-methylpiperidin-4-yl)carbamoyl)-1H-1,2,3-triazol-1-yl)-2-((3S,5R)-3,4,5-trimethylpiperazin-1-yl)phenyl)-4-(trifluoromethyl)nicotinamide], which IC50 [2] is on record?
A: The IC50 was 287 nM.

Q: Which IC50 [2] does the source give for `CCN(CC)C(=O)c1cn(-c2cc(NC(=O)c3cnc(F)cc3C(F)(F)F)c(N3C[C@@H](C)N(C)[C@@H](C)C3)cc2F)nn1` [Example 53, N-(5-(4-(diethylcarbamoyl)-1H-1,2,3-triazol-1-yl)-4-fluoro-2-((3S,5R)-3,4,5-trimethylpiperazin-1-yl)phenyl)-6-fluoro-4-(trifluoromethyl)nicotinamide] here?
A: The IC50 was 535 nM.

Q: Which IC50 [2] does the source give for `COc1cc(C(F)(F)F)c(C(=O)Nc2cc(-n3cc(C(=O)NC4CCN(C)CC4)nn3)c(F)cc2N2C[C@@H](C)N(C)[C@@H](C)C2)cn1` [Example 54, N-(4-fluoro-5-(4-((1-methylpiperidin-4-yl)carbamoyl)-1H-1,2,3-triazol-1-yl)-2-((3S,5R)-3,4,5-trimethylpiperazin-1-yl)phenyl)-6-methoxy-4-(trifluoromethyl)nicotinamide] here?
A: Its IC50 is 618 nM.

Q: With `COc1cc(C(F)(F)F)c(C(=O)Nc2cc(-n3cc(C(=O)NCCCN4CCOCC4)nn3)c(F)cc2N2C[C@@H](C)N(C)[C@@H](C)C2)cn1` [Example 55] as the compound, how does the IC50 [2] read?
A: The IC50 was 2820 nM.

Q: For `CCN(CC)C(=O)c1cn(-c2cc(NC(=O)c3cnc(Cl)cc3Cl)c(N3C[C@@H](C)N(C)[C@@H](C)C3)cc2F)nn1` [Example 56, 4,6-dichloro-N-[5-[4-(diethylcarbamoyl)triazol-1-yl]-4-fluoro-2-[(3R,5S)-3,4,5-trimethylpiperazin-1-yl]phenyl]pyridine-3-carboxamide], which IC50 [2] is on record?
A: Its IC50 is 1160 nM.

Q: With `C[C@@H]1CN(c2cc(F)c(-n3cc(C(=O)N4CCN(C)CC4)nn3)cc2NC(=O)c2cnc(Cl)cc2Cl)C[C@H](C)N1C` [Example 57, 4,6-dichloro-N-(4-fluoro-5-(4-(4-methylpiperazine-1-carbonyl)-1H-1,2,3-triazol-1-yl)-2-((3S,5R)-3,4,5-trimethylpiperazin-1-yl)phenyl)nicotinamide] as the compound, how does the IC50 [2] read?
A: The IC50 was 2170 nM.

Q: With `C[C@@H]1CN(c2cc(F)c(-n3cc(C(=O)NC4CCN(C)CC4)nn3)cc2NC(=O)c2cnc(C(F)(F)F)cc2Cl)C[C@H](C)N1C` [Example 58, 4-chloro-N-(4-fluoro-5-(4-((1-methylpiperidin-4-yl)carbamoyl)-1H-1,2,3-triazol-1-yl)-2-((3S,5R)-3,4,5-trimethylpiperazin-1-yl)phenyl)-6-(trifluoromethyl)nicotinamide] as the compound, how does the IC50 [2] read?
A: Its IC50 is > 10000 nM.

Q: For `Cc1c(Cl)ncc(C(=O)Nc2cc(-n3cc(C(=O)NCCCN4CCOCC4)nn3)c(F)cc2N2C[C@@H](C)N(C)[C@@H](C)C2)c1Cl` [Example 59, 4,6-dichloro-N-[4-fluoro-5-[4-(3-morpholinopropylcarbamoyl)triazol-1-yl]-2-[(3R,5S)-3,4,5-trimethylpiperazin-1-yl]phenyl]-5-methyl-pyridine-3-carboxamide], which IC50 [2] is on record?
A: The IC50 was > 10000 nM.

Q: For `CN1CCN(c2ccc(-n3cc(C(=O)NCCCN4CCOCC4)nn3)cc2NC(=O)c2ncc(N)cn2)CC1` [HYBI-267, 5-amino-N-(2-(4-methylpiperazin-1-yl)-5-(4-((3-morpholinopropyl)carbamoyl)-1H-1,2,3-triazol-1-yl)phenyl)pyrimidine-2-carboxamide], which IC50 [2] is on record?
A: Its IC50 is > 10000 nM.

Q: With `C[C@H]1CN(c2cc(F)c(-n3cc(C(=O)N4CCN(C)CC4)nn3)cc2NC(=O)c2cnc(Cl)cc2C(F)(F)F)C[C@H](C)N1C` [HYBI-284] as the compound, how does the IC50 [2] read?
A: Its IC50 is 1270 nM.

From patent US20230286948A1 (HUYABIO International, LLC, priority 2022, published 2023)
